Test results: ChEMBL document CHEMBL2021846, “Symplocin A, a linear peptide from the Bahamian cyanobacterium Symploca sp. Configurational analysis of N,N-dimethylamino acids by chiral-phase HPLC of naphthacyl esters” (J Nat Prod, 2012)
Active and inactive are the calls of the source. No cut-off for these calls is given here.

Experiments:
HCT-116 = test: Cytotoxicity against human HCT116 cells; assay type: functional, cell-based
Cathepsin E = target: T1, Cathepsin E (Homo sapiens, UniProt P14091); test: Inhibition of cathepsin E
T1 sequence (P14091 whole entry): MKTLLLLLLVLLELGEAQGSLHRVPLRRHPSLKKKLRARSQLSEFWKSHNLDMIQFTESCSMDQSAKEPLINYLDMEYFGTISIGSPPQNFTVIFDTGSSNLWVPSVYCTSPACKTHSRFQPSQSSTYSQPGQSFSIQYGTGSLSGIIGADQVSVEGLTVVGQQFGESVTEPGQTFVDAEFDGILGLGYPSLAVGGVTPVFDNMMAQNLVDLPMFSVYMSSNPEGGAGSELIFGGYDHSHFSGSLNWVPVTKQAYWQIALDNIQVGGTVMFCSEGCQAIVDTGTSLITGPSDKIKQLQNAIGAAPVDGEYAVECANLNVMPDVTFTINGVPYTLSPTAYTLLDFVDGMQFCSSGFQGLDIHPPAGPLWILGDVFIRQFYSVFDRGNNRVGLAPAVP

Q: With `CC[C@@H](C)[C@H](C(=O)O[C@@H](C(=O)N[C@@H](Cc1ccc(O)cc1)C(=O)N[C@@H](CO)C(=O)N[C@@H](CC(C)C)[C@H](O)CC(=O)N[C@H](C(=O)NCC(=O)N(C)[C@H](Cc1ccccc1)C(=O)N1CCC[C@H]1C(=O)OC)C(C)C)C(C)C)N(C)C` [SYMPLOCIN A] as the molecule, how does the Activity (HCT-116) read?
A: inactive

Q: And the IC50 (Cathepsin E)?
A: 0.3 nM
